In the CheMixHub viscosity set:

Assay: xn = mol fraction of the nth substance listed

O=CN1CCOCC1 + Cc1ccccc1C
viscosity [mPa·s]
Details	298.15 K	303.15 K	313.15 K	323.15 K
101 kPa, x2 = 0.1	5.936	5.18	4.063	3.294
101 kPa, x2 = 0.2	4.582	4.054	3.243	2.671
101 kPa, x2 = 0.3	3.602	3.231	2.627	2.194
101 kPa, x2 = 0.4	2.87	2.584	2.142	1.8
101 kPa, x2 = 0.5	2.233	2.034	1.71	1.467
101 kPa, x2 = 0.6	1.744	1.583	1.347	1.161
101 kPa, x2 = 0.7	1.385	1.271	1.08	0.9316
101 kPa, x2 = 0.8	1.122	1.034	0.8894	0.7789
101 kPa, x2 = 0.9	0.9104	0.8483	0.7328	0.6556
101.3 kPa, x2 = 0.05737	6.316	–	–	–
101.3 kPa, x2 = 0.1297	4.989	–	–	–
101.3 kPa, x2 = 0.2312	3.617	–	–	–
101.3 kPa, x2 = 0.5161	1.652	–	–	–
101.3 kPa, x2 = 0.5998	1.343	–	–	–
101.3 kPa, x2 = 0.6877	1.088	–	–	–
101.3 kPa, x2 = 0.7767	0.908	–	–	–
101.3 kPa, x2 = 0.9523	0.635	–	–	–

S=C=S + ClC(Cl)(Cl)Cl
101 kPa
Details	viscosity [mPa·s]
293.15 K, x1 = 0.223	0.74
293.15 K, x1 = 0.526	0.52
293.15 K, x1 = 0.628	0.47
293.15 K, x1 = 0.718	0.43
293.15 K, x1 = 0.794	0.41
293.15 K, x1 = 0.85	0.39
293.15 K, x1 = 0.914	0.38
298.15 K, x1 = 0.1	0.7919
298.15 K, x1 = 0.2	0.7079
298.15 K, x1 = 0.3	0.6441
298.15 K, x1 = 0.4	0.591
298.15 K, x1 = 0.5	0.5423
298.15 K, x1 = 0.6	0.4948
298.15 K, x1 = 0.7	0.4484
298.15 K, x1 = 0.8	0.4061
298.15 K, x1 = 0.9	0.3741

O=CN1CCOCC1 + Clc1ccccc1
viscosity [mPa·s], 101 kPa
Details	x1 = 0.1017	x1 = 0.203	x1 = 0.3039	x1 = 0.4045	x1 = 0.5046	x1 = 0.6044	x1 = 0.7039	x1 = 0.8029	x1 = 0.9017
303.15 K	0.844	1.034	1.274	1.58	1.966	2.471	3.125	3.981	5.096
308.15 K	0.801	0.973	1.186	1.455	1.793	2.233	2.8	3.529	4.465
313.15 K	0.753	0.911	1.105	1.351	1.656	2.05	2.56	3.21	4.04

FC(F)C(F)(F)F + FCF
viscosity [mPa·s], 101 kPa
Details	x1 = 0.247	x1 = 0.49	x1 = 0.744
298.15 K	0.1177	0.12	0.1269
313.15 K	–	–	0.1021

C=CCN=C=S + NCCN
313.15 K, 100 kPa
Details	viscosity [mPa·s]
x1 = 0.15	2.956
x1 = 0.2794	6.678
x1 = 0.4515	71.46
x1 = 0.4948	155.4
x1 = 0.5496	648.5
x1 = 0.5994	2470
x1 = 0.667	61100
x1 = 0.7502	281.4
x1 = 0.851	55.46
